The values that follow come from US20180298010A1, “PRMT5 INHIBITORS AND USES THEREOF” (Epizyme, Inc., priority 2012, published 2018).

The structures appear in SMILES notation.

For orientation: IC50 means the concentration that inhibits the measured activity by half.

T1 sequence (O14744 with tags, fused parts or gaps): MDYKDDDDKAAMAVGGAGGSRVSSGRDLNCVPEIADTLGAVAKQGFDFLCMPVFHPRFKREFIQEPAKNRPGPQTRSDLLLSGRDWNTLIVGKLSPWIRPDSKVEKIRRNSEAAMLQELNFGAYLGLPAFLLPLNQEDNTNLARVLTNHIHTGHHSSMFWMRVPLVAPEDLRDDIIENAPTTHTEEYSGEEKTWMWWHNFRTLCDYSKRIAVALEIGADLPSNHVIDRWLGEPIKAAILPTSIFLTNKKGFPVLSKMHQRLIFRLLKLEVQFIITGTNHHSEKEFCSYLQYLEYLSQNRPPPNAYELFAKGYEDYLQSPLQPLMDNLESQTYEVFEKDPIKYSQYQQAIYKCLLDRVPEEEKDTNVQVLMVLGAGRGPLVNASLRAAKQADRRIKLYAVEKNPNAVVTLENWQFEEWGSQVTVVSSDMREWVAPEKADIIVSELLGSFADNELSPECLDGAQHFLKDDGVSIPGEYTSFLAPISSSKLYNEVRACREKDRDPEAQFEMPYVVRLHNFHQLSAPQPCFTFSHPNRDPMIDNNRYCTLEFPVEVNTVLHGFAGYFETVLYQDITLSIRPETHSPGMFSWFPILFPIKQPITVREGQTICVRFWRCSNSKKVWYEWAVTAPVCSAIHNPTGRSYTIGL
T1 sequence (Q9BQA1 with tags, fused parts or gaps partner): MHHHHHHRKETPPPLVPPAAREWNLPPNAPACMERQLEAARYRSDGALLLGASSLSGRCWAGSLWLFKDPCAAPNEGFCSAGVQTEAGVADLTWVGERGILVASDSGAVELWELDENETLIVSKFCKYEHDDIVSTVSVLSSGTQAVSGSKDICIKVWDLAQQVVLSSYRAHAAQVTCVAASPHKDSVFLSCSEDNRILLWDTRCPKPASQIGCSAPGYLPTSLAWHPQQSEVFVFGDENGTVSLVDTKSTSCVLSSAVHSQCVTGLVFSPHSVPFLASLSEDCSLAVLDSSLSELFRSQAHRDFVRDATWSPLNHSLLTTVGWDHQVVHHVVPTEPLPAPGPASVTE

This experiment has as its target T1, PRMT5/MEP50 (Homo sapiens, UniProt O14744).
T1 construct: Flag-PRMT5; 6His-MEP50
Briefly: PRMT5 Biochemical Assay (PRMT5/MEP50 enzyme assay on peptide substrate, 3H-SAM Flashplate). The text has this: General Materials. S-adenosylmethionine (SAM), S-adenosylhomocysteine (SAH), bicine, KCl, Tween20, dimethylsulfoxide (DMSO), bovine skin gelatin (BSG), and Tris(2-carboxyethyl)phosphine hydrochloride solution (TCEP) were purchased from Sigma-Aldrich at the highest level of purity possible. ^3H-SAM was purchase from American Radiolabeled Chemicals with a specific activity of 80 Ci/mmol. 384-well streptavidin Flashplates were purchased from PerkinElmer.
Substrates. Peptide representative of human histone H4 residues 1-15 was synthesized with a C-terminal linker-affinity tag motif and a C-terminal amide cap by 21st Century Biochemicals. The peptide was high high-perfomance liquid chromatography (HPLC) purified to greater than 95% purity and confirmed by liquid chromatography mass spectrometry (LC-MS). The sequence was Ac-[…][K-Biot]-amide (SEQ ID NO.:3).
Molecular Biology: Full-length human PRMT5 (NM_006109.3) transcript variant 1 clone was amplified from a fetal brain cDNA library, incorporating flanking 5′ sequence encoding a FLAG tag ([…]) (SEQ ID NO.:4) fused directly to Ala 2 of PRMT5. Full-length human MEP50 (NM_024102) clone was amplified from a human testis cDNA library incorporating a 5′ sequence encoding a 6-histidine tag (MHHHHHH) (SEQ ID NO.:5) fused directly to Arg 2 of MEP50. The amplified genes were sublconed into pENTR/D/TEV (Life Technologies) and subsequently transferred by Gateway™ attL×attR recombination to pDEST8 baculvirus expression vector (Life Technologies).
Protein Expression. Recombinant baculovirus and Baculovirus-Infected Insect Cells (BIIC) were generated according to Bac-to-Bac kit instructions (Life Technologies) and Wasilko, 2006, respectively. Protein over-expression was accomplished by infecting exponentially growing Spodoptera frugiperda (SF9) cell culture at 1.2×10^6cell/ml with a 5000 fold dilution of BIIC stock. Infections were carried out at 27° C. for 72 hours, harvested by centrifugation, and stored at −80° C. for purification.
Protein Purification. […] Flag-PRMT5/6His-MeP50 was eluted with 300 mM Imidazole in the same buffer. The purity of recovered protein was 87%. Reference: Wasilko, D. J. and S. E. Lee: “TIPS: titerless infected-cells preservation and scale-up” Bioprocess J., 5 (2006), pp. 29-32.
General Procedure for PRMT5/MEP50 Enzyme Assays on Peptide Substrates. The assays were all performed in a buffer consisting of 20 mM Bicine (pH=7.6), 1 mM TCEP, 0.005% BSG, and 0.002% Tween20, prepared on the day of use. Compounds in 100% DMSO (1 ul) were spotted into a polypropylene 384-well V-bottom plates (Greiner) using a Platemate Plus outfitted with a 384-channel head (Thermo Scientific). DMSO (1 ul) was added to Columns 11, 12, 23, 24, rows A-H for the maximum signal control and 1 ul of SAH, a known product and inhibitor of PRMT5/MEP50, was added to columns 11, 12, 23, 24, rows I-P for the minimum signal control. A cocktail (40 ul) containing the PRMT5/MEP50 enzyme and the peptide was added by Multidrop Combi (Thermo-Fisher). The compounds were allowed to incubate with PRMT5/MEP50 for 30 min at 25 degrees Celsius, then a cocktail (10 ul) containing ^3H-SAM was added to initiate the reaction (final volume=51 ul). The final concentrations of the components were as follows: PRMT5/MEP50 was 4 nM, ^3H-SAM was 75 nM, peptide was 40 nM, SAH in the minimum signal control wells was 100 uM, and the DMSO concentration was […]. The assays were stopped by the addition of non-radioactive SAM (10 ul) to a final concentration of 600 uM, which dilutes the ^3H-SAM to a level where its incorporation into the peptide substrate is no longer detectable. 50 ul of the reaction in the 384-well polypropylene plate was then transferred to a 384-well Flashplate and the biotinylated peptides were allowed to bind to the streptavidin surface for at least 1 hour before being washed three times with 0.1% Tween20 in a Biotek ELx405 plate washer. […]
As for `OC(COc1cccc(CNC2CCCC2)c1)CN1CCc2ccccc2C1` (stereo not shown) [Compound 1], the IC50 was 101 to 1000 nM.
On to `OC(COC1CCCN(c2ccccc2)C1)CN1CCc2ccccc2C1` (stereo not shown) [Compound 2], for which the 50% inhibitory concentration (IC50) lay within 1000 to 10000 nM.
Consider `OC(COc1ccc(OCC(O)CN2CCc3ccccc3C2)cc1)CN1CCc2ccccc2C1` (stereo not shown) [Compound 3], for which the IC50 lay in the range of 101 to 1000 nM.
In the case of `OC(COc1cccc(CNC2CCCCC2)c1)CN1CCc2ccccc2C1` (stereo not shown) [Compound 4], the IC50 was 101 to 1000 nM.
Regarding `OC(COc1cccc(CNC2CCOCC2)c1)CN1CCc2ccccc2C1` (stereo not shown) [Compound 5, 1-(3,4-dihydroisoquinolin-2(1H)-yl)-3-(3-(((tetrahydro-2H-pyran-4-yl)amino)methyl)phenoxy)propan-2-ol], the IC50 lay within 101 to 1000 nM.
Turning to `OC(COc1cccc(CNc2cc[nH]n2)c1)CN1CCc2ccccc2C1` (stereo not shown) [Compound 6, 1-(3-(((1H-pyrazol-3-yl)amino)methyl)phenoxy)-3-(3,4-dihydroisoquinolin-2(1H)-yl)propan-2-ol], the 50% inhibitory concentration (IC50) was 101 to 1000 nM.
The figure for `OC(COc1ccccc1N1CCNCC1)CN1CCc2ccccc2C1` (stereo not shown) [Compound 7] is 10000 to 40000 nM; for `OC(COc1ccccc1C1CCCCC1)CN1CCc2ccccc2C1` (stereo not shown) [Compound 8] it is 1000 to 10000 nM; for `OC(COc1ccc(-n2cncn2)cc1)CN1CCc2ccccc2C1` (stereo not shown) [Compound 9] it is 1000 to 10000 nM.
As to `OC(COc1ccc(Cc2ccccc2)cc1)CN1CCc2ccccc2C1` (stereo not shown) [Compound 10], the IC50 was 101 to 1000 nM.
In the case of `OC(COCc1cc(-c2ccc(Cl)cc2)no1)CN1CCc2ccccc2C1` (stereo not shown) [Compound 11], the concentration for half-maximal inhibition (IC50) lay in the range of 101 to 1000 nM.
As to `OC(COCc1ccc(OCc2ccccc2)cc1)CN1CCc2ccccc2C1` (stereo not shown) [Compound 12], the IC50 is 1000 to 10000 nM.
On to `OC(COc1cccc(CNC2CCNCC2)c1)CN1CCc2ccccc2C1` (stereo not shown) [Compound 13], for which the IC50 lay within 1000 to 10000 nM.
Turning to `OC(COc1cccc(CN2CCCCC2)c1)CN1CCc2ccccc2C1` (stereo not shown) [Compound 14], the IC50 fell in the range of 1000 to 10000 nM.
Next, `OC(COc1cccc2ccc(N3CCOCC3)nc12)CN1CCc2ccccc2C1` (stereo not shown) [Compound 15]: 1000 to 10000 nM.
For the compound `OC(COc1ccccc1-c1ccno1)CN1CCc2ccccc2C1` (stereo not shown) [Compound 16], the IC50 fell in the range of 1000 to 10000 nM.
`Cc1cc(OCC(O)CN2CCc3ccccc3C2)c(C)cc1CN1CCOCC1` (stereo not shown) [Compound 17]: the IC50 is 101 to 1000 nM.
For the compound `O=S1(=O)CCN(c2ccc(OCC(O)CN3CCc4ccccc4C3)cc2)CC1` (stereo not shown) [Compound 18], the IC50 lay within 1000 to 10000 nM.
On to `OC(COc1ccc(OCc2ccccc2)cc1)CN1CCc2ccccc2C1` (stereo not shown) [Compound 19], for which the half-inhibitory concentration (IC50) was in the range of 1000 to 10000 nM.
Regarding `OC(COc1cccc(OCc2ccccc2)c1)CN1CCc2ccccc2C1` (stereo not shown) [Compound 20], the IC50 fell in the range of 1000 to 10000 nM.
As to `OC(COC1CCN(Cc2ccccc2)CC1)CN1CCc2ccccc2C1` (stereo not shown) [Compound 21], the half-maximal inhibitory concentration (IC50) lay in the range of 1000 to 10000 nM.
As to `CN(Cc1ccc(OCC(O)CN2CCc3ccccc3C2)cc1)C1CCCC1` (stereo not shown) [Compound 24], the IC50 was in the range of 1000 to 10000 nM.
As to `OC(COc1ccc(C2CCNCC2)cc1)CN1CCc2ccccc2C1` (stereo not shown) [Compound 25], the IC50 was in the range of 1000 to 10000 nM.
The figure for `CC(C)n1nccc1-c1ccc(OCC(O)CN2CCc3ccccc3C2)cc1` (stereo not shown) [Compound 26] is 10000 to 40000 nM.
For `CC(C)n1ccc(-c2ccc(OCC(O)CN3CCc4ccccc4C3)cc2)n1` (stereo not shown) [Compound 27], the IC50 is 1000 to 10000 nM.
On to `Cc1nn(-c2ccccc2)c(C)c1COCC(O)CN1CCc2ccccc2C1` (stereo not shown) [Compound 28], for which the 50% inhibitory concentration (IC50) was 1000 to 10000 nM.
The figure for `COc1cccc2c1CN(CC(O)COc1cccc(CNC3CCCC3)c1)CC2` (stereo not shown) [Compound 29] is 10000 to 40000 nM; for `O=C(c1ccc(Cn2nccc2-c2ccc(OCC(O)CN3CCc4ccccc4C3)cc2)cc1)N1CCCC1` (stereo not shown) [Compound 31, (4-((5-(4-(3-(3,4-dihydroisoquinolin-2(1H)-yl)-2-hydroxypropoxy)phenyl)-1H-pyrazol-1-yl)methyl)phenyl)(pyrrolidin-1-yl)methanone] it is 101 to 1000 nM; for `COC(COc1cccc(CNC2CCCC2)c1)CN1CCc2ccccc2C1` (stereo not shown) [Compound 32] it is 1000 to 10000 nM.
Turning to `CC(C(O)COc1cccc(CNC2CCCC2)c1)N1CCc2ccccc2C1` (stereo not shown) [Compound 33], the IC50 was 1000 to 10000 nM.
In the case of `O=C(c1ccc(Cn2ccc(-c3ccc(OCC(O)CN4CCc5ccccc5C4)cc3)n2)cc1)N1CCCC1` (stereo not shown) [Compound 34], the IC50 fell in the range of 1000 to 10000 nM.
Next, `OC(COC1CCN(Cc2ccccc2)C1)CN1CCc2ccccc2C1` (stereo not shown) [Compound 35]: 1000 to 10000 nM; `OC(CCc1cccc(CNC2CCCC2)c1)CN1CCc2ccccc2C1` (stereo not shown) [Compound 36]: 10000 to 40000 nM.
For `OC(CNc1cccc(CNC2CCCC2)c1)CN1CCc2ccccc2C1` (stereo not shown) [Compound 39, 1-((3-((cyclopentylamino)methyl)phenyl)amino)-3-(3,4-dihydroisoquinolin-2(1H)-yl)propan-2-ol], the IC50 lay within 101 to 1000 nM.
On to `OC(COc1cccc(-c2cccnc2)c1)CN1CCc2ccccc2C1` (stereo not shown) [Compound 40], for which the IC50 lay in the range of 1000 to 10000 nM.
In the case of `OC(COc1cccc(-c2ccccc2)c1)CN1CCc2ccccc2C1` (stereo not shown) [Compound 43, 1-([1,1′-biphenyl]-3-yloxy)-3-(3,4-dihydroisoquinolin-2(1H)-yl) propan-2-ol], the IC50 lay within 101 to 1000 nM.
Next, `Cn1cc(-c2cccc(OCC(O)CN3CCc4ccccc4C3)c2)cn1` (stereo not shown) [Compound 44]: 1000 to 10000 nM; `OC(COCc1ccc(CN2CCOCC2)cc1)CN1CCc2ccccc2C1` (stereo not shown) [Compound 46]: 1000 to 10000 nM; `OC(COc1ccc(-c2ccn[nH]2)cc1)CN1CCc2ccccc2C1` (stereo not shown) [Compound 48]: 1000 to 10000 nM.
Next, `CC(Oc1cccc(CNC2CCCC2)c1)C(O)CN1CCc2ccccc2C1` (stereo not shown) [Compound 49]: 101 to 1000 nM; `CC1c2ccccc2CCN1CC(O)COc1cccc(CNC2CCCC2)c1` (stereo not shown) [Compound 50]: 1000 to 10000 nM; `OC(COc1cccc(C2CCCCC2)c1)CN1CCc2ccccc2C1` (stereo not shown) [Compound 52]: 1000 to 10000 nM.
As for `CN(CC(O)CN1CCc2ccccc2C1)c1cccc(CNC2CCCC2)c1` (stereo not shown) [Compound 53], the IC50 fell in the range of 101 to 1000 nM.
Next, `OC(COc1cccc(-c2cccc(Oc3ccccc3)c2)c1)CN1CCc2ccccc2C1` (stereo not shown) [Compound 55]: 1000 to 10000 nM; `OC(COc1cccc(C2=CCCCC2)c1)CN1CCc2ccccc2C1` (stereo not shown) [Compound 57]: 1000 to 10000 nM.
Turning to `Cn1cnc2cc(-c3cccc(OCC(O)CN4CCc5ccccc5C4)c3)ccc21` (stereo not shown) [Compound 60, 1-(3,4-dihydroisoquinolin-2(1H)-yl)-3-(3-(1-methyl-1H-benzo[d]imidazol-5-yl)phenoxy)propan-2-ol], the IC50 was in the range of 101 to 1000 nM.
Turning to `OC(COc1cccc(-c2cc(C(F)(F)F)ccc2Cl)c1)CN1CCc2ccccc2C1` (stereo not shown) [Compound 62, 1-((2′-chloro-5′-(trifluoromethyl)-[1,1′-biphenyl]-3-yl)oxy)-3-(3,4-dihydroisoquinolin-2(1H)-yl)propan-2-ol], the IC50 lay in the range of 101 to 1000 nM.
In the case of `CS(=O)(=O)c1ccc(-c2cccc(OCC(O)CN3CCc4ccccc4C3)c2)cc1` (stereo not shown) [Compound 63], the 50% inhibitory concentration (IC50) lay in the range of 101 to 1000 nM.
With `COc1ccc(Cl)c(-c2cccc(OCC(O)CN3CCc4ccccc4C3)c2)c1` (stereo not shown) [Compound 64], the IC50 fell in the range of 1000 to 10000 nM.
Take `Cn1cnc2ccc(N3CCCC(OCC(O)CN4CCc5ccccc5C4)C3)cc21` (stereo not shown) [Compound 66]: the IC50 lay within 101 to 1000 nM.
For `CC(=O)c1cccc(-c2cccc(OCC(O)CN3CCc4ccccc4C3)c2)c1` (stereo not shown) [Compound 67], the IC50 is 101 to 1000 nM.
Take `OC(COc1cccc(-c2ccc(Cl)cc2)c1)CN1CCc2ccccc2C1` (stereo not shown) [Compound 69]: the IC50 was in the range of 1000 to 10000 nM.
